“Also recorded” adds a separate entry of the source. Where two headings read alike, the source gives them in different places. Marks after values point to notes of the source that are not given here.
Tests used:
[1] = Fenthion, fenoxon and fenthion sulfoxide metabolism in liver microsomes; conditions: for Vmax, Fenoxon formation / Vmax, MMTP (NADPH-dependent) formation / Vmax, MMTP (NADPH-independent) formation / Vmax, R-fenthion sulfoxide formation / Vmax, S-fenthion sulfoxide formation / Vmax, R-fenoxon sulfoxide formation / Vmax, S-fenoxon sulfoxide formation: liver microsomes incubated with fenthion; for R-fenoxon sulfoxide formation / S-fenoxon sulfoxide formation: liver, substrate 100 μM
[2] = tested on: FMO3; conditions: ref Furnes and Schlenk, 2003, 2004; cited from earlier work
[3] = olfactory tissues
[4] = Cleavage in cytosolic incubations; conditions: data not shown
[5] = Fenthion, fenoxon and fenthion sulfoxide metabolism in gill microsomes; conditions: gills, substrate 100 μM, bdl: <0.3
[6] = tested on: AChE; conditions: read-out: IC50 (AChE inhibition); ref Gadepalli et al., 2007; cited from earlier work
[7] = TEPP inhibition of MMTP formation from fenthion, liver microsomes; format: biochemical, rainbow trout (Oncorhynchus mykiss); conditions: freshwater-acclimated
[8] = TEPP inhibition of MMTP formation from fenthion, gill microsomes; format: biochemical, rainbow trout (Oncorhynchus mykiss); conditions: Gills, freshwater-acclimated
[9] = TEPP inhibition of MMTP formation from fenthion, olfactory tissue microsomes; format: biochemical, rainbow trout (Oncorhynchus mykiss); conditions: freshwater-acclimated
[10] = molecular target: T1, recombinant human FMO1 (Homo sapiens, UniProt Q01740); test: Biotransformation by recombinant human FMO1; conditions: fenthion sulfoxide as substrate
T1 sequence (Q01740 1-532): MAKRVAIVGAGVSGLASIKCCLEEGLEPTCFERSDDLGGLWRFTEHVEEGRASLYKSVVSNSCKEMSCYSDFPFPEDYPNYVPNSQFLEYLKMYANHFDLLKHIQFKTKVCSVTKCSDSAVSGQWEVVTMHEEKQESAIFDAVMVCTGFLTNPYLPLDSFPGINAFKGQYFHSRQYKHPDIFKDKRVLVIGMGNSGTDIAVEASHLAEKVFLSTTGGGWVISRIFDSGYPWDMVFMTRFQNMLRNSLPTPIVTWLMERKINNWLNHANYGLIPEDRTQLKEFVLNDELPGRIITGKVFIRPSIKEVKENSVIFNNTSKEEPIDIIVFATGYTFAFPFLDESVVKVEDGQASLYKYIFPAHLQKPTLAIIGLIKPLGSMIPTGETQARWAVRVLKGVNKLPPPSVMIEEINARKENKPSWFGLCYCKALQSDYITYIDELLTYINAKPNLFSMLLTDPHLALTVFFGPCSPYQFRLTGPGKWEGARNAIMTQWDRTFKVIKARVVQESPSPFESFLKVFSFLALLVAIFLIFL

[11] = CYP; conditions: for reduction of fenoxon formation: liver microsomes, ketoconazole 500 μM; for Fenoxon formation from fenthion / MMTP (NADPH-dependent) formation from fenthion / MMTP (NADPH-independent) formation from fenthion / R-Fenthion sulfoxide formation from fenthion / S-Fenthion sulfoxide formation from fenthion: liver, NADPH+ ketoconazole (500 μM)+ fenthion
[12] = tested on: testosterone hydroxylase (CYP3A27-related); test: [14C]Testosterone hydroxylase activity in liver microsomes; conditions: Ketoconazole 500 μM; below detection; data not shown
[13] = Table 1, freshwater-acclimated, bdl: <0.3
[14] = Table 1, freshwater-acclimated, substrate 100 μM, bdl: <0.3

SMILES: COP(=S)(OC)Oc1ccc(SC)c(C)c1 [Fenthion, O,O-dimethyl-O-(4-methylmlercapto)-3-methylphenylthio-phosphate]
- Vmax, Fenoxon formation ([1]; Freshwater): 82.8±4.6 pmol/min/mg protein
- Vmax, MMTP (NADPH-dependent) formation ([1]; Freshwater): 199.2±24.4 pmol/min/mg protein
- Vmax, MMTP (NADPH-independent) formation ([1]; Freshwater): 53.7±4.8 pmol/min/mg protein
- Vmax, R-fenthion sulfoxide formation ([1]; Freshwater): 78.6±5.2 pmol/min/mg protein
- Vmax, S-fenthion sulfoxide formation ([1]; Freshwater): 173.4±9.6 pmol/min/mg protein
- Vmax, R-fenoxon sulfoxide formation ([1]; Freshwater, bdl: <0.3): bdl
- Vmax, S-fenoxon sulfoxide formation ([1]; Freshwater, bdl: <0.3): bdl
- Vmax, Fenoxon formation ([1]; Hypersaline): 130.0±6.1 pmol/min/mg protein
- Vmax, MMTP (NADPH-dependent) formation ([1]; Hypersaline): 35.1±1.9 pmol/min/mg protein
- Vmax, MMTP (NADPH-independent) formation ([1]; Hypersaline): 59.8±10.5 pmol/min/mg protein
- Vmax, R-fenoxon sulfoxide formation ([1]; Hypersaline): 7.7±0.6 pmol/min/mg protein
- Vmax, R-fenthion sulfoxide formation ([1]; Hypersaline): 201.1±11.9 pmol/min/mg protein
- Vmax, S-fenoxon sulfoxide formation ([1]; Hypersaline): 18.4±1.1 pmol/min/mg protein
- Vmax, S-fenthion sulfoxide formation ([1]; Hypersaline): 355.7±9.4 pmol/min/mg protein
- R-fenoxon sulfoxide formation [1, 13]: bdl
- S-fenoxon sulfoxide formation [1, 13]: bdl
- R-fenoxon sulfoxide formation ([1]; Table 3, Freshwater, bdl: <0.3): bdl
- S-fenoxon sulfoxide formation ([1]; Table 3, Freshwater, bdl: <0.3): bdl
- efficiency of R-sulfoxide formation relative to fenoxon ([1]; liver microsomes, HA fish): 2 fold
- efficiency of S-sulfoxide formation relative to R-sulfoxide ([1]; liver microsomes, HA fish): approximately 3 fold
- S-sulfoxide excess formed [2]: 75%
- Fenoxon formation [3, 14]: bdl
- R-fenoxon sulfoxide formation [3, 14]: bdl
- R-fenthion sulfoxide formation [3, 14]: bdl
- S-fenoxon sulfoxide formation [3, 14]: bdl
- S-fenthion sulfoxide formation [3, 14]: bdl
- sulfoxidation ([3]; HA fish, data not shown): not detected
- NADPH-independent or dependent cleavage [4]: not observed
- R-fenoxon sulfoxide formation ([5]; Table 1, freshwater-acclimated): bdl
- S-fenoxon sulfoxide formation ([5]; Table 1, freshwater-acclimated): bdl
- R-fenoxon sulfoxide formation ([5]; Table 4, Freshwater): bdl
- S-fenoxon sulfoxide formation ([5]; Table 4, Freshwater): bdl
- R-fenoxon sulfoxide formation ([5]; Table 4, Hypersaline): bdl
- S-fenoxon sulfoxide formation ([5]; Table 4, Hypersaline): bdl

SMILES: COP(=S)(OC)Oc1ccc([S@@+](C)[O-])c(C)c1 [R-fenthion sulfoxide]
- R-fenoxon sulfoxide formation [1, 13]: 5.2±1.1 pmol/min/mg protein
- R-fenoxon sulfoxide formation ([1]; Table 3, Freshwater, bdl: <0.3): 5.2±1.1 pmol/min/mg protein
- R-fenoxon sulfoxide formation ([1]; Table 3, Hypersaline): 9.2±0.3 pmol/min/mg protein
- R-fenoxon sulfoxide formation [3, 14]: bdl
- R-fenoxon sulfoxide formation ([5]; Table 1, freshwater-acclimated): 2.9±0.1 pmol/min/mg protein
- R-fenoxon sulfoxide formation ([5]; Table 4, Freshwater): 2.9±0.1 pmol/min/mg protein
- IC50 [6]: > 1000 µM

SMILES: COP(=S)(OC)Oc1ccc([S+](C)[O-])c(C)c1 (centres unmarked) [S-fenthion sulfoxide]
- S-fenoxon sulfoxide formation [1, 13]: 6.1±0.2 pmol/min/mg protein
- S-fenoxon sulfoxide formation ([1]; Table 3, Freshwater, bdl: <0.3): 6.1±0.2 pmol/min/mg protein
- S-fenoxon sulfoxide formation ([1]; Table 3, Hypersaline): 12.2±3.2 pmol/min/mg protein
- S-fenoxon sulfoxide formation [3, 14]: bdl
- S-fenoxon sulfoxide formation ([5]; Table 1, freshwater-acclimated): 2.3±0.2 pmol/min/mg protein
- S-fenoxon sulfoxide formation ([5]; Table 4, Freshwater): 2.1±0.1 pmol/min/mg protein

SMILES: CCOP(=O)(OCC)OP(=O)(OCC)OCC [TEPP, tetraethylpyrophosphate]
- MMTP Formation from fenthion, NADPH-dependent ([7]; 100 μM TEPP): 138.4±10.3^a pmol/min/mg protein
- MMTP Formation from fenthion, NADPH-dependent ([7]; 500 μM TEPP): 65.4±11.1^b pmol/min/mg protein
- MMTP Formation from fenthion, NADPH-independent ([7]; 500 μM TEPP, bdl: <0.3): bdl^b
- MMTP Formation from fenthion, NADPH-dependent ([7]; 1000 μM TEPP, bdl: <0.3): below detection; also recorded: bdl^c
- MMTP Formation from fenthion, NADPH-independent ([7]; 1000 μM TEPP, bdl: <0.3): bdl^b
- MMTP Formation from fenthion, NADPH-dependent ([8]; 100 μM TEPP): 105.3±8.9^a pmol/min/mg protein
- MMTP Formation from fenthion, NADPH-dependent ([8]; 500 μM TEPP): 74.3±10.1^b pmol/min/mg protein
- MMTP Formation from fenthion, NADPH-independent ([8]; 500 μM TEPP, bdl: <0.3): bdl^b
- MMTP Formation from fenthion, NADPH-dependent ([8]; 1000 μM TEPP, bdl: <0.3): below detection; also recorded: bdl^c
- MMTP Formation from fenthion, NADPH-independent ([8]; 1000 μM TEPP, bdl: <0.3): bdl^b
- MMTP Formation from fenthion, NADPH-dependent ([9]; 100 μM TEPP): 254.3±18.1^a pmol/min/mg protein
- MMTP Formation from fenthion, NADPH-dependent ([9]; 500 μM TEPP): 100.2±13.3^b pmol/min/mg protein
- MMTP Formation from fenthion, NADPH-independent ([9]; 500 μM TEPP, bdl: <0.3): bdl^b
- MMTP Formation from fenthion, NADPH-dependent ([9]; 1000 μM TEPP, bdl: <0.3): below detection; also recorded: bdl^c
- MMTP Formation from fenthion, NADPH-independent ([9]; 1000 μM TEPP, bdl: <0.3): bdl^b

SMILES: COP(=S)(OC)Oc1ccc([S+](C)[O-])c(C)c1 (centres unmarked) [fenthion sulfoxide]
- Fenoxon sulfoxides production [10]: not produced

SMILES: CC(=O)N1CCN(c2ccc(OCC3COC(Cn4ccnc4)(c4ccc(Cl)cc4Cl)O3)cc2)CC1 (centres unmarked) [ketoconazole]
- fenoxon sulfoxide formation with inhibitor ([11]; liver microsomes from HA fish, co-incubation): below detection
- reduction of fenoxon formation ([11]; FA fish): 67%
- reduction of fenoxon formation ([11]; HA fish): 60%
- Fenoxon formation from fenthion ([11]; Freshwater): 6.9±1.3 pmol/min/mg protein
- MMTP (NADPH-dependent) formation from fenthion ([11]; Freshwater): 121.2±15.3 pmol/min/mg protein
- MMTP (NADPH-independent) formation from fenthion ([11]; Freshwater): 5.3±2.1 pmol/min/mg protein
- R-Fenthion sulfoxide formation from fenthion ([11]; Freshwater): 16.7±1.7 pmol/min/mg protein
- S-Fenthion sulfoxide formation from fenthion ([11]; Freshwater): 33.7±2.7 pmol/min/mg protein
- Fenoxon formation from fenthion ([11]; Hypersaline): 16.8±2.4 pmol/min/mg protein
- MMTP (NADPH-dependent) formation from fenthion ([11]; Hypersaline): 13.2±4.5 pmol/min/mg protein
- MMTP (NADPH-independent) formation from fenthion ([11]; Hypersaline): 4.5±1.1 pmol/min/mg protein
- R-Fenthion sulfoxide formation from fenthion ([11]; Hypersaline): 83.4±8.4 pmol/min/mg protein
- S-Fenthion sulfoxide formation from fenthion ([11]; Hypersaline): 168.4±13.2 pmol/min/mg protein
- testosterone hydroxylase activity with inhibitor [12]: < 0.2 pmol/min/mg protein

— publication PMC2858921 (Toxicology and applied pharmacology, 2008)
